The subject of assay [1] is eNOS. The assay can be described thus: eNOS activity assay (conversion of [3H]-arginine to [3H]-citrulline) in treated human endothelial cells. The conditions noted are these: E2 10 nM, wortmannin 30 nM, genistein 50 μM, PD98059 5 μM; for effect on E2-stimulated eNOS activity, later phase (≥15 min) or 30 min: ICI 10 μM, actinomycin D 2 h pretreatment. The assay is classed as cell-based. As to the method: Fetal bovine serum was deprived of estrogen by charcoal-stripping. Once grown to confluence the cells were replated on 1.5% gelatin-coated flasks at 20000 cells/cm^2. […] Cell number was assessed by direct cell counting of adherent cells, after trypsin detachment, in a Neubauer hemocytometer (VWR Scientifics). The percentage of cells excluding Trypan Blue after staining with the compound was taken as a measure of cell viability.
Endothelial cells were grown to confluence on 55 cm^2 culture dishes, treated according to the indicated conditions, and harvested in ice-cold PBS containing 1 mM EDTA. The cell lysates were pelleted in a microfuge (2 minutes, 13000 rpm, 4° C.) and subsequently homogenized in a buffer containing 25 mM Tris-HCl, pH 7.4, 1 mM EDTA, 1 mM EGTA. eNOS activity was determined by measuring the conversion of [^3H]-arginine to [^3H]-citrulline. Rat cerebellum extracts, containing elevated amounts of neuronal NOS, were used as positive controls, while endothelial cell extracts incubated in the presence of the competitive eNOS inhibitor L-NAME (1 mM) served as negative controls.
Human and bovine aortic endothelial cells were harvested enzymatically with Type IA collagenase (1 mg/mL).

The subject of assay [2] is PI3-kinase. The assay can be described thus: PI3-kinase assay on p85 immunoprecipitates of endothelial cell lysates. The class given is cell-based, human. The note with it: E2 10 nM 20 min; ICI 10 μM, wortmannin 30 nM. How it is done: PI3kinase activity in endothelial cell lysates was assayed using the borate thin layer chromatography method, as described.^34 Following a 6 h incubation in serum- and estrogen-deficient medium 199, endothelial cells were treated according to the indicated conditions, washed, and harvested in ice-cold lysis buffer (137 mM NaCl, 20 mM Tris-HCl, pH 7.4, 1 mM CaCl2, 1 mM Mg Cl2, 0.1 mM Na3VO4, 1% NP-40). After pelleting the cell debris, the supernatant was incubated for 1 hour at 4° C. with 5 μL of a rabbit antiserum directed against the p85 regulatory subunit of the PI3-kinase (Upstate Biotechnology, Lake Placid, N.Y.), and immunoprecipitated with the addition of 50 μL of a 1:1 slurry of protein A-agarose for 1 hour at 4° C. Following centrifugation, the immunoprecipitates were washed three times with lysis buffer, three times with 0.1 M Tris-HCl, pH 7.4, 5 mM LiCl, 0.1 mM Na3VO4, followed by two washes with 10 mM Tris-HCl, pH 7.4, 150 mM NaCl, 5 mM EDTA, 0.1 mM Na3VO4.
The immunoprecipitates were then mixed with 50 μL Tris-HCl, pH 7.4, 150 mM NaCl, 5 mM EDTA, 20 μg of phosphatidylinositol (Sigma, Saint Louis, Mo.), 10 μL 100 mM MgCl2 and 5 μL of a 0.88 mM ATP, 20 mM MgCl2 solution, containing 30 μCi of [γ-^32P]ATP (3000 Ci/mmol; NEN Life Science Products, Boston, Mass.). […] The phospholipids were extracted with 160 μL of chloroform/methanol (1:1, v/v). 50 μL of the organic phase, containing the labeled PI3-kinase products were separated by borate thin layer chromatography on glass-backed Silica Gel 60 plates (EM Separations, Gibbstown, N.J.) pretreated with a solution containing 25 mM trans-1,2-diaminocyclohexane-N,N,N′N′-tetraacetic acid (CDTA, Sigma, Saint Louis, Mo.), 66% (v/v) ethanol and 0.06 N NaOH, dried for 1 hour and then baked at 100° C. for 15 minutes. The chromatography was developed with a solution containing 37.5% (v/v) methanol, 30% (v/v) chloroform, 22.5% (v/v) pyridine (Sigma, Saint Louis, Mo.), 1.33% (v/v) formic acid, […] boric acid and 8.5 mM butylated hydroxytoluene (Sigma, Saint Louis, Mo.), briefly dried and exposed to autoradiography.

“Also recorded” adds a separate entry of the source.

In the case of `O=c1c(-c2ccc(O)cc2)coc2cc(O)cc(O)c12` [genistein], in assay [1], the “effect on E2-stimulated eNOS activity, later phase (≥15 min) or 30 min” value is reported as “only minimally affected; also recorded: not the later phase; also recorded: little or no inhibitory effect” and the “effect on E2-stimulated eNOS activity, initial phase (first 5-10 min)” value was “able to block; also recorded: significantly blocked”. In assay [1] (listed as Genistein), the “effect on E2-stimulated eNOS activity, later phase (≥15 min) or 30 min” value was “do not block” and the “effect on E2-stimulated eNOS activity, initial phase (first 5-10 min)” value is recorded as “blunt”. The “effect on E2-induced PI3-kinase activation” value in assay [2] was “only minimally affected”.

These data come from patent publication US6566081B1, “Methods of identifying a compound which modulates the non-transcriptional non-map-kinase induced effects of steroid hormones” (The Brigham and Women's Hospital, Inc., priority 1999, dated 2003).
